PMC3145970, “Specific CLK Inhibitors from a Novel Chemotype for Regulation of Alternative Splicing” (Chemistry & Biology, 2011)
Where two headings read alike, the source gives them in different places.

Experiments:
Test in all cases: Thermal stability shift assay
Type in all cases: binding
[1] = target: T1, ALK2 (Homo sapiens, UniProt Q04771); settings: read-out: Tm shift ALK2
T1 sequence (Q04771 21-509): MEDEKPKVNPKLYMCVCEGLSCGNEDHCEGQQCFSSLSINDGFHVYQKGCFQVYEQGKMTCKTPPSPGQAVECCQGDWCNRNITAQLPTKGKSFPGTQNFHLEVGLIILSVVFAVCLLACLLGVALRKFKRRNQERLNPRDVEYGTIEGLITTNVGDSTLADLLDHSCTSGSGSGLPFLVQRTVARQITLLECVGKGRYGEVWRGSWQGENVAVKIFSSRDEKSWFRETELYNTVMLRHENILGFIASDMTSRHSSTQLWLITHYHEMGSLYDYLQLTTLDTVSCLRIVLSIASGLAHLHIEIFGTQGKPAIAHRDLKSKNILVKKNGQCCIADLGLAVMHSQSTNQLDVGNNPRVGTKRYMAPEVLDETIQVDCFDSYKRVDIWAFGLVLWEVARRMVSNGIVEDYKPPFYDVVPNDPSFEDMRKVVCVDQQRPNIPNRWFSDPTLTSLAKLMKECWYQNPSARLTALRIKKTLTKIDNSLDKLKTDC
Procedure: (§1) Thermal denaturation experiments were carried out in an Mx3005p real-time PCR machine (Agilent) using a protein concentration of 2 μM and an inhibitor concentration of 10 μM. Samples were buffered in 10 mM HEPES (pH 7.5), 500 mM NaCl and a 1:1000 dilution of SyproOrange (Invitrogen). The assay and data evaluation were carried out as described ([Bullock et al., 2005])

[2] = target: T2, BARK2 (Homo sapiens, UniProt P35626); settings: read-out: Tm shift BARK2
T2 sequence (P35626 1-688): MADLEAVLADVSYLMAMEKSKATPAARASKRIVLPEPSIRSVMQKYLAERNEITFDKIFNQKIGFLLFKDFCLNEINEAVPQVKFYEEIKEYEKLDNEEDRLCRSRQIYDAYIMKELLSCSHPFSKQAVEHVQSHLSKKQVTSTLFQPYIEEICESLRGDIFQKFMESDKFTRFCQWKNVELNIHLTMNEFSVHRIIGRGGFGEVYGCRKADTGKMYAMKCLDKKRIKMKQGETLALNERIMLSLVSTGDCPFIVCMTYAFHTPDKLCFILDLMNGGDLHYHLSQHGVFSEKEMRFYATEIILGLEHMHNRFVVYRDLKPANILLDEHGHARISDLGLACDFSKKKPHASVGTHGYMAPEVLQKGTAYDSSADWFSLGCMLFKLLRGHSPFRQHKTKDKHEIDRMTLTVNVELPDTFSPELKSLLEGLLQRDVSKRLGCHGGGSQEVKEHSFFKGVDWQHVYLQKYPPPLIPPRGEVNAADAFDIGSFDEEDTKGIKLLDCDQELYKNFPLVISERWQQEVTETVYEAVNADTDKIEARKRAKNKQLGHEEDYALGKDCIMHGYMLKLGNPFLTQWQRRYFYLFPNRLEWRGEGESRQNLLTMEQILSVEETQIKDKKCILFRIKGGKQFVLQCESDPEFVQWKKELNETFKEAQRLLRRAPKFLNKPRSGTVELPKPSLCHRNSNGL
Procedure: as §1

[3] = target: CK2a2 (Homo sapiens, UniProt P19784); settings: read-out: Tm shift CK2a2
Procedure: as §1

[4] = target: T3, Haspin (Homo sapiens, UniProt Q8TF76); settings: read-out: Tm shift Haspin
T3 construct: purchased in-house (SGC Oxford thermal shift panel)
T3 sequence (Q8TF76 1-798): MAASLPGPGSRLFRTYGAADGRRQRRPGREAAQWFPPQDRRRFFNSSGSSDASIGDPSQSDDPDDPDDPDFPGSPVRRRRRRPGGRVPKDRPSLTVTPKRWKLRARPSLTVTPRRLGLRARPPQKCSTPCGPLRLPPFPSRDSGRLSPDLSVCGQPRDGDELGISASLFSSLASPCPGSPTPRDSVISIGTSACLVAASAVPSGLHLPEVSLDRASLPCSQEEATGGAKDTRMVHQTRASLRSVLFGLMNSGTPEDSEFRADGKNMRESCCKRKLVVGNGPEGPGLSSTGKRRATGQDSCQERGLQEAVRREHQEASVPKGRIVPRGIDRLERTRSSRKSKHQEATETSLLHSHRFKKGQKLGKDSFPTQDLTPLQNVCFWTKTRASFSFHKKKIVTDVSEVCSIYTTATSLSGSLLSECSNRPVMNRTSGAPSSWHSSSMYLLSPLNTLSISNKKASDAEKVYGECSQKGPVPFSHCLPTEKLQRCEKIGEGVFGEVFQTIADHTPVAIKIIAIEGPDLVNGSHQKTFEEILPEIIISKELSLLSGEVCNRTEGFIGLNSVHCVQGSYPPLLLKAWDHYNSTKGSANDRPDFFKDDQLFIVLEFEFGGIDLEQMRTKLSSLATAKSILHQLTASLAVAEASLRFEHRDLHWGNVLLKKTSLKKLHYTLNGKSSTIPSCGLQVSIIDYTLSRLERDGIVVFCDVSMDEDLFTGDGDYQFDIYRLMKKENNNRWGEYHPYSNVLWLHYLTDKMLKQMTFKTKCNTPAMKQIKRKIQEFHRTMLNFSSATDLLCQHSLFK
Procedure: as §1

[5] = target: T4, LYN (Homo sapiens, UniProt P07948); settings: read-out: Tm shift LYN
T4 construct: purchased in-house (SGC Oxford thermal shift panel)
Procedure: as §1

[6] = target: T5, MST3 (Homo sapiens, UniProt Q9Y6E0); settings: read-out: Tm shift MST3
T5 construct: purchased in-house (SGC Oxford thermal shift panel)
Procedure: as §1

[7] = target: T6, NDR1 (Homo sapiens, UniProt Q15208); settings: read-out: Tm shift NDR1
T6 construct: purchased in-house (SGC Oxford thermal shift panel)
Procedure: as §1

[8] = target: T7, NDR2 (Homo sapiens, UniProt Q9Y2H1); settings: read-out: Tm shift NDR2
T7 construct: purchased in-house (SGC Oxford thermal shift panel)
Procedure: as §1

T6 sequence (Q15208 whole entry): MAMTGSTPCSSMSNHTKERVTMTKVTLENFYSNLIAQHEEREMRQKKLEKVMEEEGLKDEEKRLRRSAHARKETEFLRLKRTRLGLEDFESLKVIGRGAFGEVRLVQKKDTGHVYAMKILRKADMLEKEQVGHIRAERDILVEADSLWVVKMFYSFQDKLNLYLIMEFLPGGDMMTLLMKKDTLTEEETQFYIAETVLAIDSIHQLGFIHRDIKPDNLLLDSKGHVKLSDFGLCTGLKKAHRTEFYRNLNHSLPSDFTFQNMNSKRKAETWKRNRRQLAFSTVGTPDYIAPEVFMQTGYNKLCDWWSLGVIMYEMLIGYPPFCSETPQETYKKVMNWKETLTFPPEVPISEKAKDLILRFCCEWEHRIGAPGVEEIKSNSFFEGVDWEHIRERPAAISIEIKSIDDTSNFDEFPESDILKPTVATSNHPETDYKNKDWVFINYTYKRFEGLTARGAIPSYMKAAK
T4 sequence (P07948 whole entry): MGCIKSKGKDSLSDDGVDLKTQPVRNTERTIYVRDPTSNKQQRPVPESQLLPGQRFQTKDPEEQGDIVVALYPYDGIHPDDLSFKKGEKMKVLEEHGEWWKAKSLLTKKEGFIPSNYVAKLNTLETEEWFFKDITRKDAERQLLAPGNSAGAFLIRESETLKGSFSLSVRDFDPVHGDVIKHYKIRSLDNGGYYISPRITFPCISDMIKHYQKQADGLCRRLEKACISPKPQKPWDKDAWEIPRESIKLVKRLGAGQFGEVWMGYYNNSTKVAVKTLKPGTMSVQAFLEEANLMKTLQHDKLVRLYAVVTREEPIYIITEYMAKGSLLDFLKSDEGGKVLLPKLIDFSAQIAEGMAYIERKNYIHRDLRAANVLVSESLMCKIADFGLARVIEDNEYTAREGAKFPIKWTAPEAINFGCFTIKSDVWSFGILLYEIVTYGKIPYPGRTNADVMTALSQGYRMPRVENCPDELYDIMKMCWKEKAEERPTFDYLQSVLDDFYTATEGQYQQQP
T7 sequence (Q9Y2H1 whole entry): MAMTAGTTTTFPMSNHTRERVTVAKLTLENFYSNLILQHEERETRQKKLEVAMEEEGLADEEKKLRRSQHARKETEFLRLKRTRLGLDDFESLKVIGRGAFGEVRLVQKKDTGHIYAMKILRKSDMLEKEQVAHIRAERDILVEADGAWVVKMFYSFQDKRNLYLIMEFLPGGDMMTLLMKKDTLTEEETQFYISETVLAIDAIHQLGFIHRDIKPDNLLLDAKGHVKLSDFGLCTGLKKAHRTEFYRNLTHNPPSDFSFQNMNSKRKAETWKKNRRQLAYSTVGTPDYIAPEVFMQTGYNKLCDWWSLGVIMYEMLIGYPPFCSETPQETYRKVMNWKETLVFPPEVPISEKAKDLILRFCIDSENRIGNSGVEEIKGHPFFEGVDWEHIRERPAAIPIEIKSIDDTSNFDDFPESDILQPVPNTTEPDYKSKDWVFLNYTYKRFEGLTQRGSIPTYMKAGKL
Chain of CK2a2 (P19784 whole entry): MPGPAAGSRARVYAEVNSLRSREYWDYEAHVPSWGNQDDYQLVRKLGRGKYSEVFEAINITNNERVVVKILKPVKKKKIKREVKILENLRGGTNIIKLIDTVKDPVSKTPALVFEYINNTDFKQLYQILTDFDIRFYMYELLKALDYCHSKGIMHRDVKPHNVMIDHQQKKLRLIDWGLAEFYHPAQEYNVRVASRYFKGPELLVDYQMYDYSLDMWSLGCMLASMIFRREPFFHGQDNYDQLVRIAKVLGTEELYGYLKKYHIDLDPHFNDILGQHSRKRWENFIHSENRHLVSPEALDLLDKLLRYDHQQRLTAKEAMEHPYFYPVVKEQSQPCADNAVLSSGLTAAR
T5 sequence (Q9Y6E0 whole entry): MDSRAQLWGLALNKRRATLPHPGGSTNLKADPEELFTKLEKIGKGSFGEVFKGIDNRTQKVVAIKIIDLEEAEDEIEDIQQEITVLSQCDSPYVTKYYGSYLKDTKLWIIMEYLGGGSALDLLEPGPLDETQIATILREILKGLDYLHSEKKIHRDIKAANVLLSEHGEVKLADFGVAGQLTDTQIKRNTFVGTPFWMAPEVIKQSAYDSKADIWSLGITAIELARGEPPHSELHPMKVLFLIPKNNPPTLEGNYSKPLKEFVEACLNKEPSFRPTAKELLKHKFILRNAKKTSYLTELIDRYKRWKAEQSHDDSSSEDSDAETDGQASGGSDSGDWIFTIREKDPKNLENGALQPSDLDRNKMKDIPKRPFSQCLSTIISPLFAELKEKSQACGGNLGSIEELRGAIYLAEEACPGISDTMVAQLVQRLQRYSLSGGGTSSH

ΔTm at 10 µM ([1]; inhibitor 10 μM) | ΔTm at 10 µM ([2]; inhibitor 10 μM) | ΔTm at 10 µM ([3]; inhibitor 10 μM) | ΔTm at 10 µM ([4]; inhibitor 10 μM) | ΔTm at 10 µM ([5]; inhibitor 10 μM) | ΔTm at 10 µM ([6]; inhibitor 10 μM) | ΔTm at 10 µM ([7]; inhibitor 10 μM) | ΔTm at 10 µM ([8]; inhibitor 10 μM) | SMILES | ΔTm at 10 µM [1] | ΔTm at 10 µM [2] | ΔTm at 10 µM [3] | ΔTm at 10 µM [4] | ΔTm at 10 µM [5] | ΔTm at 10 µM [6] | ΔTm at 10 µM [7] | ΔTm at 10 µM [8]
– | – | – | – | – | – | – | – | CCOC(=O)c1c(C(C#N)=CN)c2ccc(Cl)c(Cl)c2n1C (mixture of isomers) [KH-CB20, (E/Z)-Ethyl 3-(2-Amino-1-Cyanovinyl)-6,7-Dichloro-1-Methyl-1H-Indole-2-Carboxylate] | 0.8 °C | -0.1 °C | 1.3 °C | 1.8 °C | 0 °C | -0.1 °C | 0.3 °C | -0.3 °C
-0.5 °C | 0.2 °C | 0 °C | 0.2 °C | 0 °C | -1.1 °C | 0.4 °C | -0.1 °C | CCOC(=O)c1c(C(C#N)=CN(C)C)c2ccc(Cl)c(Cl)c2n1C (mixture of isomers) [compound 2, (E/Z)-Ethyl 6,7-Dichloro-3-[1-Cyano-2-(Dimethylamino)Vinyl]-1-Methyl-1H-Indole-2-Carboxylate] | – | – | – | – | – | – | – | –
– | – | – | – | – | – | – | – | CCOC(=O)c1c(/C(C#N)=C\N)c2ccc(Cl)c(Cl)c2n1C [KH-CB19, (E)-Ethyl 3-(2-Amino-1-Cyanovinyl)-6,7-Dichloro-1-Methyl-1H-Indole-2-Carboxylate] | 0.5 °C | -0.4 °C | 1.4 °C | 2.1 °C | 0.2 °C | 0.2 °C | 0.2 °C | -0.2 °C
0.5 °C | 0.3 °C | 1.7 °C | 2.1 °C | 0.2 °C | 0.1 °C | 0.7 °C | 0 °C | Cn1c2c(Cl)c(Cl)ccc2c2c(C#N)c[nH]c(=O)c21 [compound 3, 7,8-Dichloro-9-Methyl-1-Oxo-2,9-Dihydro-1H-Pyrido[3,4-b]Indole-4-Carbonitrile] | – | – | – | – | – | – | – | –

SMILES | ΔTm at 10 µM ([1]; inhibitor 10 μM) | ΔTm at 10 µM ([2]; inhibitor 10 μM) | ΔTm at 10 µM ([3]; inhibitor 10 μM) | ΔTm at 10 µM ([4]; inhibitor 10 μM) | ΔTm at 10 µM ([5]; inhibitor 10 μM) | ΔTm at 10 µM ([6]; inhibitor 10 μM) | ΔTm at 10 µM ([7]; inhibitor 10 μM) | ΔTm at 10 µM ([8]; inhibitor 10 μM) | ΔTm at 10 µM [1] | ΔTm at 10 µM [2] | ΔTm at 10 µM [3] | ΔTm at 10 µM [4] | ΔTm at 10 µM [5] | ΔTm at 10 µM [6] | ΔTm at 10 µM [7] | ΔTm at 10 µM [8]
NC1=NC(=O)/C(=C2\CCNC(=O)c3[nH]c(Br)cc32)N1 [Hymenialdisine, hymenialdisine, reference compound] | 2.1 °C | -0.3 °C | 1.2 °C | 3.9 °C | 0.3 °C | 1 °C | 1 °C | 0.9 °C | – | – | – | – | – | – | – | –
